Experimental data: US9655909B2, “Personalized medicine for the prediction of therapy targeting the hedgehog pathway” (Board of Regents, The University of Texas System, priority 2012, dated 2017)

Tests used:
[1] = tested on: Gli-dependent luciferase reporter; assay: Gli-dependent luciferase reporter assay in EAC cell lines; format: cell-based, human
Protocol: Because Gli protein activity is a useful readout for the HH pathway (Jiang and Hui, 2008), the inventors employed a Gli-dependent luciferase reporter system (Sasaki et al., 1997) to evaluate the influence of TNFα on the HH pathway in three EAC cell lines, BE3, SKGT-4, and OE33 (Boonstra et al., 2010). […] Then, the inventors compared the activity of HH pathway in EAC cells stimulated by SHH or TNFα.
Cells were seeded in six-well plates and transfected with GliBS or mGliBS combined with CMV-Renilla vector as an internal standard. After overnight (12-16 hr) transfection, the cells were used for further experiments. After treatment, the cells were rinsed with PBS and subjected to luciferase assay using a dual-luciferase reporter assay system (Promega) based on the manufacturer's instruction.

[2] = tested on: EAC cell lines and BE3 Gli1 stable clones; assay: IC50 evaluation for cyclopamine and GDC-0449 (cell growth); format: cell-based, human; details: for resistance of BE3/Gli1 under TNFα treatment: TNFα 5 ng/mL; for efficacy in the EAC cell lines with rapamycin treatment: rapamycin 10 nM pre-treatment
Protocol: FIGS. 7A-7G. […] FIG. 7A. The expression of activated SHH (SHH-N) in EAC cell lines and the cell culture medium. FIG. 7B. The mRNA levels of Gli1 target genes in EAC cell lines with or without SHH treatment (1 μg/mL). The mRNA levels of Gli1 target genes are normalized to ACTIN. Error bars represent SD (n=3). FIG. 7C. […] Error bars represent SD (n=4). FIG. 7D. […] Error bars represent SD (n=4). FIG. 7E. […] Error bars represent SD (n=4). FIG. 7F. […] Error bars represent SD (n=4). FIG. 7G. In vivo combination therapy for subcutaneously inoculated tumors from BE3 cells using GDC-0449 (50 mg/kg) or RAD001 (10 mg/kg). One million cells were subcutaneously injected into the right flank of nude mice and the tumor cells were allowed to grow for 10 days (the arrow) before initiation of drug treatment. The vehicle, GDC-0449, RAD001, or combination of GDC-0449 and RAD001 were orally administrated, qd. The tumor volume measured and calculated using the formula: l×w^2, where l is the longest diameter and w is the shortest diameter. Error bars represent SD (n=5).
The concentrations required to inhibit cell growth by 50% (IC50) were calculated from survival curves.

[3] = tested on: subcutaneously inoculated tumors from BE3 cells; assay: In vivo combination therapy of subcutaneous BE3 tumors; set-up: species or system nude mice
Text: FIG. 7A. […] FIG. 7B. […] Error bars represent SD (n=3). FIG. 7C. […] FIG. 7G.

Gli1 [4] = assay: Gli1 nuclear accumulation (cell fractionation Western blot, immunofluorescence) in BE3 cells; format: cell-based, human; details: TNFα 5 ng/mL alone
Protocol: FIGS. 1A-1E. TNFα regulates Gli1 transcriptional activity. FIG. 1A. Luciferase assay for Gli transcriptional activity in esophageal adenocarcinoma (EAC) cell lines with or without TNFα (5 ng/mL) stimulation. The EAC cells were transfected using GliBS-Luciferase or mGliBS-Luciferase with CMV-Renilla at a 10:1 ratio, serum-starved overnight, and then treated with TNFα for 24 hr. GliBS is a Gli-responsive reporter, and mGliBS is a Gli-unresponsive reporter. Error bars represent SD (n=5). FIG. 1B. The mRNA levels of Gli1 target genes in the EAC cell lines with or without TNFα (5 ng/mL) stimulation were examined by real-time PCR and normalized to the mRNA level of ACTIN. Error bars represent SD (n=4). FIG. 1C. […] FIG. 1D. […] Then, the cells were lysed for cell fractionation followed by Western blotting. Lamin B and tubulin were used as markers for the nucleus and the cytoplasm, respectively. FIG. 1E. Immunofluorescent analysis of Gli1 in BE3 cells treated with TNFα (5 ng/mL) alone or co-treated with TNFα and rapamycin (50 nM) for the indicated time course. Scale bar=100 μm for original picture and 25 μm for inset. Dapi was used to stain nuclei.
Cellular fractionation was performed as described previously (Lin et al., 2001). Briefly, cells were lysed in the lysis buffer (20 mM HEPES, pH 7.0, 10 mM KCl, 2 mM MgCl2, 0.5% NP-40, 1 mM Na3VO4, 10 mM NaF, 1 mM PMSF, 2 μg/mL aprotinin). […]

Gli1 [5] = assay: Western blot of Gli1 in breast cancer cell lines; format: cell-based; details: for Gli1 protein levels: BT549 and Hs578t breast cancer cells
Protocol: FIG. 21. […] Western blot showing the effect of PF-4708671 on S6 phosphorylation, S6K1 phosphorylation, and Gli1 expression in the BT549 cell line. Tubulin was detected as a loading control. Lane labels indicate the micromolar concentration of PF-4708671 used.
FIG. 22. […] DMSO was used as a negative control.
A western blot was performed to show the effect of PF-4708671 on S6 phosphorylation, S6K1 phosphorylation, and Gli1 expression in the BT549 cell line (FIG. 21).

[6] = tested on: CF-Pac-1 and AsPC-1 stable clones; assay: MTT assay of PDAC Gli1 stable clones with GEM; format: cell-based
Text: FIGS. 19A-C. Gli1 is negatively correlated with sensitivity of pancreatic cancer cells to GEM. Gli1 knock-down sensitized the response of PDAC cells to gemcitabine (GEM), but overexpression of Gli1 protected PDAC cells from GEM. FIG. 19A. Western blot of Gli1 in stable clones of AsPC-1 and CF-Pac-1 cells with Gli1 knocked down or ectopic expression. FIG. 19B. MTT assay of CF-Pac-1 stable clones with GEM. FIG. 19C. MTT assay of AsPC-1 stable clones with GEM.
Knock-down of Gli1 in PDAC cells sensitized the cells to gemcitabine (GEM), and overexpression of Gli1 protected PDAC cells from GEM. The inventor's performed a western blot for Gli1 in stable clones of AsPC-1 and CF-Pac-1 cells with Gli1 knocked down or ectopically expressed (FIG. 19A). MTT assays were performed on CF-Pac-1 stable clones (FIG. 19B) and AsPC-1 stable clones (FIG. 19C) with GEM. Gli1 expression correlated negatively with sensitivity of pancreatic cancer cells to GEM.

CS(=O)(=O)c1ccc(C(=O)Nc2ccc(Cl)c(-c3ccccn3)c2)c(Cl)c1 [GDC-0449]
constitutive activation of HH pathway in EAC cell lines ([1]; Gli reporter, EAC cell lines, FIG. 9A): can be inhibited | mTOR/S6K1-mediated Gli1 activation ([1]; SMO inhibitors): had little effects | IC50 value in BE3/S84E compared with BE3/EV, BE3/Gli1 and BE3/S84A ([2]; 48 hr, Gli1 stable clones): much higher | resistance of BE3/Gli1 under TNFα treatment [2]: increased the resistance | efficacy in the EAC cell lines with rapamycin treatment [2]: enhanced the efficacy | EAC tumor size ([3]; GDC-0449 50 mg/kg qd oral, alone): decreased the EAC tumor size

TNFα
activity of HH pathway in EAC cells ([1]; Gli reporter, stimulation by SHH or TNFα, FIG. 9A): increased the activity of HH pathway | Gli1 nuclear accumulation (Gli1 [4]): rapidly induced Gli1 nuclear accumulation

CO[C@H]1C[C@@H]2CC[C@@H](C)[C@@](O)(O2)C(=O)C(=O)N2CCCC[C@H]2C(=O)O[C@H]([C@H](C)C[C@@H]2CC[C@@H](OCCO)[C@H](OC)C2)CC(=O)[C@H](C)/C=C(\C)[C@@H](O)[C@@H](OC)C(=O)[C@H](C)C[C@H](C)/C=C/C=C/C=C/1C [RAD001, everolimus]
tumor-inhibitory effect of GDC-0449 when combined with RAD001 ([3]; GDC-0449 50 mg/kg and RAD001 10 mg/kg qd oral): enhanced the tumor-inhibitory effect | tumor growth ([3]; RAD001 10 mg/kg qd oral, alone, low dose): did not inhibit tumor growth | Gli1 protein levels (Gli1 [5]): decreased Gli1 protein levels

CC1=C2C[C@H]3[C@@H](CC=C4C[C@@H](O)CC[C@@]43C)[C@@H]2CC[C@]12O[C@@H]1C[C@H](C)CN[C@H]1[C@H]2C [cyclopamine]
resistance of BE3/Gli1 under TNFα treatment [2]: increased the resistance | efficacy in the EAC cell lines with rapamycin treatment [2]: enhanced the efficacy

NC1(c2ccc(-c3nc4ccn5c(=O)[nH]nc5c4cc3-c3ccccc3)cc2)CCC1 [MK]
Gli1 protein levels (Gli1 [5]): decreased Gli1 protein levels

Nc1ccn([C@@H]2O[C@H](CO)[C@@H](O)C2(F)F)c(=O)n1 [gemcitabine]
response of PDAC cells with knock-down of Gli1 [6]: sensitized | response of PDAC cells with overexpression of Gli1 [6]: protected

CCc1cncnc1N1CCN(Cc2nc3ccc(C(F)(F)F)cc3[nH]2)CC1 [PF-4708671]
Gli1 expression (Gli1 [5]; BT549 cell line): decreased
